From US6277383A, “Ryegrass pollen allergen” (University of Melbourne, priority 1995, dated 2001)

Experiments:
[1] = test system: MAb 12.3; test: Antibody screening of lambda-gt 11 cDNA clones: binding of MAb 12.3; set-up: key to Binding of MAb 12.3: ++: strongest binding; -: no binding; conditions: protein expressed by lambda-gt 11 clone in E. coli Y1090, plaque lift
Method: (§1) Poly (A+) mRNA isolated from mature rye grass pollen by the phenol method ([…] and Michaels, (1984) Plant Mol. Biol. Rep., 2:24-28) was used to construct a cDNA library in the vector lambda-gt 11. The library was then screened with antibody probes to detect sequences expressing Group I proteins. E. coli […] transfected with 3×10^4 recombinant phages were plated and incubated at 42° C. for 3 h. The plates were overlaid with a dry 132 mm nitrocellulose (NC) filter previously soaked in 10 mm IPTG and transferred to 37° C. After incubation for 3 h the filters were carefully peeled off and incubated in 20 ml per filter of MTBS (10% w/v non-fat milk powder, 50 mm Tris-HCI, pH 7.6, 150 mM Nacl) for 30 min. at room temperature. A second set of NC filters was placed on phage plates and after incubating for 3 h were treated as above. Both sets of NC filters were tested for binding of MAb 40.1 to plaques by the method described in Huynh et al. (1985) In: DNA Cloning, a practical approach, Glover, D. M. (ed.) Vol. 1, pp. 49-78, IRL Press, Oxford, England. The antibody positive plaques were picked, purified, then replated and tested for binding to probes. The positive clones were plaque-purified and tested for IgE binding using sera from grass pollen-allergic subjects. Eighteen clones were selected as encoding proteins recognized by both Lol p I-specific MAbs and IgE antibodies (Table 1). The largest of the cDNA clones, 1.2kb in size, that expressed rye-grass allergenic protein was initially selected for further characterization and sequencing, and designated clone lambda-12R (FIG. 1a).

[2] = test system: MAb 40.1; test: Antibody screening of lambda-gt 11 cDNA clones: binding of MAb 40.1; set-up: key: ++: strongest binding; -: no binding; conditions: protein expressed by lambda-gt 11 clone in E. coli Y1090, plaque lift
Method: as §1

[3] = test system: IgE from sera of allergic indivs.; test: Screening of lambda-gt 11 cDNA clones for IgE binding; set-up: species or system human; key: ++: strongest binding; -: no binding; conditions: protein expressed by lambda-gt 11 clone, plaque lift
Method: as §1

[4] = Two dimensional gel electrophoresis of ryegrass pollen proteins (pI); type: physicochemical, Lolium perenne; conditions: allergen spot on two dimensional gel
Method: (§2) Two dimensional (2D)-PAGE was performed in a mini-Protean II 2-D cell (Biorad, Richmond, Calif.) according to the manufacturer instructions. The proteins were diluted 1:1 in 4% CHAPS. […] The first dimension gel was run for 3.5 hours. The econd dimension gel was run for 45 minutes. Proteins on 2D-PAGE gels were silver stained to reveal the protein profile.

[5] = test system: IgE affinity purified from recombinant allergens and IgE from whole serum of allergic individuals; test: Two-dimensional Western blot: IgE binding to allergens; set-up: species or system human; conditions: IgE preparations that bind: AP12R, AP13R, AP19R = affinity purified from recombinant Lol p Ib.1 fragment IH, Lol p Ia clone 13R, Lol p Ib.2; TIgE = whole serum
From the text: Serum used in the experiment to identify allergen regions of Lol p Ia and Lol p Ib was collected by Dr. R. Phomley at the Epworth Hospital (Richmond, Australia) from patients with a history of allergy to ryegrass pollen and a positive skin test to ryegrass pollen extract. IgE was affinity-purified from recombinant allergens as previously described (Singh, et al., (1991) Proc. Nat'l Acad. Sci. USA, […]; Example 2) except recombinant proteins were derived from lambda-gt11 culture rather than pGEX cultures.
as §2
Conditions for electrophoresis and Western blotting and for the processing of Western blots with MAbs and IgE were as described by Singh, et al., (1985) Int. Arch. Allergy Appl. Immun., 78:300.

[6] = test system: Mab FMC-A7 and rabbit polyclonal anti-Lol p Ib antiserum; test: Peptide dot blot immunoassay: mouse/rabbit IgG; type: binding
Method: (§3) The peptides were dissolved in water to give a 1.6 mM stock solution. Insoluble peptides were dissolved by sonication (Branson Sonifier 450, USA) for 1 minute.
(§4) The peptides were immobilized onto nitrocellulose (NC) filter by using a modified method published elsewhere (Sithigonglu (1991) J. Immunol. Methods, 141:23-32). Two μl of the peptide stock solutions were spotted on the NC filter (Schleicher & Schuell, W. Germany) about 1 cm apart. After the strips were dried and baked at 80° C. for one hour, they were fixed by exposure, in a tightly sealed plastic box, to vapor from 0.2% glutaraldehyde in PBS at room temperature (18° C.) for one hour. After washing thoroughly with distilled water, the NC filters were blocked with Blotto (10% non-fat dry milk in PBS) for two hours and washed in 1×Tween-PBS (0.1% Tween-20 in PBS) and 2×PBS, five minutes each.
(§5) The peptides were then screened for human IgE and mouse/rabbit IgG epitopes with individual sera (diluted 1:4 in PBS with 0.5% BSA), MAbs FMC A7 (Smart et al. (1983) Int. Arch. Allergy Clin. Immunol. 72: 243) and polyclonal rabbit anti-Lol p Ib antibody. The rabbit anti-sera was a gift from Dr. Jenny Roland, Alfred Hospital, Melbourne, Australia.
(§6) The intensity of each dot blot was measured by densitometer (Pharmacia LKB UltraScan XL, Sweden). Densitometric values greater than two were considered as positive binding in comparison to the background. For every peptide, the sera and antibody values have been added (score/peptide) and divided by the number of positive sera to express the final value as an average (score/sera). Sera C1 and C2 were not grass allergic and were used as negative controls. C refers to crude ryegrass pollen extract (1 μg/dot) as positive control.

[7] = test system: human IgE of individual sera; test: Peptide dot blot immunoassay: human IgE; type: binding; conditions: for IgE Binding (symbol): sera diluted 1:4
Method: as §3, §4, §5, §6

KFKIFEAAFSES [Peptide 8]
Binding of MAb 12.3 [1]: -
Binding of MAb 40.1 [2]: -
Binding of IgE from sera of allergic indivs. [3]: -
pI [4]: 6.45
IgE binding [5]: AP12R,AP19R and TIgE

ESAFNKALNECT [Peptide 23]
Mouse/rabbit IgG-reactivity (in words) [6]: highest mouse/rabbit IgG-reactivity
Human IgE-reactivity (in words) [7]: highest human IgE-reactivity
IgE Binding (symbol) [7]: + (Densitometric values greater than two were considered as positive binding)

NECTGGAYETYK [Peptide 24]
Mouse/rabbit IgG-reactivity (in words) [6]: highest mouse/rabbit IgG-reactivity
IgE Binding (symbol) [7]: + (Densitometric values greater than two were considered as positive binding)

AAATPATPAATPA [Peptide 2]
Binding of MAb 40.1 [2]: ++
Binding of IgE from sera of allergic indivs. [3]: -
pI [4]: 5.9
IgE binding [5]: AP13R TIgE

AVKPATEEVPAA [Peptide 17]
Binding of MAb 40.1 [2]: ++
Binding of IgE from sera of allergic indivs. [3]: -
pI [4]: < 5.65
IgE binding [5]: TIgE

EVKYAVFEAALT [Peptide 28]
Mouse/rabbit IgG-reactivity (in words) [6]: highest mouse/rabbit IgG-reactivity

GELQIVDKIDAA [Peptide 19]
Mouse/rabbit IgG-reactivity (in words) [6]: highest mouse/rabbit IgG-reactivity
Human IgE-reactivity (in words) [7]: highest human IgE-reactivity
IgE Binding (symbol) [7]: + (Densitometric values greater than two were considered as positive binding)

ALTEGLRVIAGA [Peptide 15]
Binding of MAb 12.3 [1]: -
Binding of MAb 40.1 [2]: -
Binding of IgE from sera of allergic indivs. [3]: -
pI [4]: 9
IgE binding [5]: TIgE

VPAAKIPTGELQI [Peptide 18]
Binding of MAb 12.3 [1]: ++
Binding of MAb 40.1 [2]: ++
Binding of IgE from sera of allergic indivs. [3]: ++
IgE Binding (symbol) [7]: + (Densitometric values greater than two were considered as positive binding)

AAEGATPEAKYD [Peptide 13]
Binding of MAb 40.1 [2]: ++
pI [4]: 7
IgE Binding (symbol) [7]: + (Densitometric values greater than two were considered as positive binding)
IgE binding [5]: TIgE

GKATTDEQKLLE [Peptide 4]
Binding of MAb 40.1 [2]: ++
Binding of IgE from sera of allergic indivs. [3]: -
pI [4]: 7
IgE binding [5]: AP13R TIgE

GFKAAVAAAANA [Peptide 6]
Binding of MAb 40.1 [2]: ++
Binding of IgE from sera of allergic indivs. [3]: -
pI [4]: 6.45
IgE Binding (symbol) [7]: + (Densitometric values greater than two were considered as positive binding)
IgE binding [5]: AP12R,AP19R and TIgE

YAATVAAPEVKY [Peptide 27]
IgE Binding (symbol) [7]: + (Densitometric values greater than two were considered as positive binding)

AALTKAITAMTQA [Peptide 29]
IgE Binding (symbol) [7]: + (Densitometric values greater than two were considered as positive binding)

AANAPPADKFKI [Peptide 7]
Binding of MAb 40.1 [2]: ++
Mouse/rabbit IgG-reactivity (in words) [6]: highest mouse/rabbit IgG-reactivity
Binding of IgE from sera of allergic indivs. [3]: -
pI [4]: 6
Human IgE-reactivity (in words) [7]: highest human IgE-reactivity
IgE Binding (symbol) [7]: + (Densitometric values greater than two were considered as positive binding)
IgE binding [5]: AP12R,AP19R and TIgE

LATSAAKAPGLI [Peptide 10]
Binding of MAb 12.3 [1]: -
Binding of MAb 40.1 [2]: -
Binding of IgE from sera of allergic indivs. [3]: -
pI [4]: 8.3
IgE Binding (symbol) [7]: + (Densitometric values greater than two were considered as positive binding)
IgE binding [5]: AP12R,AP19R and TIgE

PGLIPKLNTAYD [Peptide 11]
Binding of MAb 40.1 [2]: ++
Binding of IgE from sera of allergic indivs. [3]: -
pI [4]: 10.6
IgE binding [5]: AP12R,AP19R and TIgE

FSESSKGLLATS [Peptide 9]
Binding of MAb 12.3 [1]: -
Binding of MAb 40.1 [2]: -
Binding of IgE from sera of allergic indivs. [3]: -
pI [4]: 7.2
IgE binding [5]: AP12R,AP19R and TIgE

GAATAAAGGYKA [Peptide 34]
Human IgE-reactivity (in words) [7]: highest human IgE-reactivity
IgE Binding (symbol) [7]: + (Densitometric values greater than two were considered as positive binding)

IAGALEVHAVKPA [Peptide 16]
Binding of MAb 40.1 [2]: ++
Binding of IgE from sera of allergic indivs. [3]: -
pI [4]: < 5.65
Human IgE-reactivity (in words) [7]: highest human IgE-reactivity
IgE Binding (symbol) [7]: + (Densitometric values greater than two were considered as positive binding)
IgE binding [5]: TIgE

AKYDAFVTALTE [Peptide 14]
Binding of MAb 12.3 [1]: ++
Binding of MAb 40.1 [2]: ++
Binding of IgE from sera of allergic indivs. [3]: ++
pI [4]: 7.3
IgE binding [5]: TIgE

AMTQAQKAGKPA [Peptide 30]
Human IgE-reactivity (in words) [7]: highest human IgE-reactivity
IgE Binding (symbol) [7]: + (Densitometric values greater than two were considered as positive binding)

KLLEDVNAGFKA [Peptide 5]
Binding of MAb 40.1 [2]: ++
Binding of IgE from sera of allergic indivs. [3]: -
pI [4]: 6
IgE Binding (symbol) [7]: + (Densitometric values greater than two were considered as positive binding)
IgE binding [5]: AP12R,AP19R and TIgE

AATPAAAGGKAT [Peptide 3]
Binding of MAb 40.1 [2]: ++
Binding of IgE from sera of allergic indivs. [3]: -
pI [4]: 6.45
IgE binding [5]: AP13R TIgE

ETYKFIPSLEAA [Peptide 25]
IgE Binding (symbol) [7]: + (Densitometric values greater than two were considered as positive binding)

TAYDVAYKAAEG [Peptide 12]
Binding of MAb 12.3 [1]: ++
Binding of MAb 40.1 [2]: ++
Binding of IgE from sera of allergic indivs. [3]: ++
pI [4]: 8.0
IgE binding [5]: AP12R,AP19R and TIgE

ADAGYTPAAAAT [Peptide 1]
Binding of MAb 12.3 [1]: -
Binding of MAb 40.1 [2]: -
Mouse/rabbit IgG-reactivity (in words) [6]: highest mouse/rabbit IgG-reactivity
Binding of IgE from sera of allergic indivs. [3]: -
pI [4]: 5.5
IgE binding [5]: AP13R TIgE

ATAANAAPTNDK [Peptide 21]
Human IgE-reactivity (in words) [7]: highest human IgE-reactivity
IgE Binding (symbol) [7]: + (Densitometric values greater than two were considered as positive binding)
